Assay [1] deals with T1, Protein cereblon/Histone-lysine N-methyltransferase NSD2 (Homo sapiens) (UniProt O96028+Q96SW2). Put plainly: PROTAC activity at CRBN/NSD2 in human SEM cells assessed as induction of NSD2 degradation at 2 uM measured after 12 to 24 hrs by immunoblot analysis. The assay is classed as cell-based. Particulars: time 12-24 hrs. On the technique in general: A western blot detects proteins with antibodies after separation by electrophoresis.

In a further assay the test system is RPMI 8402. Put plainly: Inhibition of colony formation in human RPMI 8402 cells at 2 uM administered every three days for 30 days by iodonitrotetrazolium chloride staining based microscopy analysis. The format is functional, cell-based. The settings on record: time 30.0 day.
The target in assay [2] is T1, Protein cereblon/Histone-lysine N-methyltransferase NSD2 (Homo sapiens). Put plainly: PROTAC activity at CRBN/NSD2 in human SEM cells assessed as decrease in NSD2 level at 2 uM measured after 4 hrs by TMT-labeled quantitative proteomics assay. The format is cell-based.
Assay [3] has the same target. Put plainly: PROTAC activity at CRBN/NSD2 in human VCaP cells assessed as decrease in NSD2 level at 2 uM measured after 6 hrs by TMT-labeled quantitative proteomics assay. The format is cell-based.
Assay [4] shares this target. Put plainly: PROTAC activity at CRBN/NSD2 in human RPMI 8402 cells assessed as induction of NSD2 degradation at 2 uM pretreated with MLN4924 for 2 hrs followed by compound addition and measured after 6 to 12 hrs by Western blot analysis. Particulars: time 6-12 hrs. The format is cell-based.
The target is the same in assay [5]. Put plainly: PROTAC activity at CRBN/NSD2 in human RPMI 8402 cells assessed as induction of NSD2 degradation incubated for 24 hrs by immunoblot analysis. The assay is classed as cell-based. The settings on record: dose 0.001-10 µM.
Assay [6] concerns the target T2, Protein cereblon/Eukaryotic peptide chain release factor GTP-binding subunit ERF3A (Homo sapiens) (UniProt Q96SW2+P15170). Put plainly: PROTAC activity at CRBN/GSPT1 in human VCaP cells assessed as decrease in GSPT1 level at 2 uM measured upto 8 hrs by immunoblot analysis. The assay is classed as cell-based.
Assay [7] addresses T1, Protein cereblon/Histone-lysine N-methyltransferase NSD2 (Homo sapiens). Put plainly: PROTAC activity at CRBN/NSD2 in human RPMI 8402 cells assessed as induction of NSD2 degradation at 2 uM measured after 12 to 24 hrs by immunoblot analysis. The assay is classed as cell-based. The settings on record: time 12-24 hrs.
The target in assay [8] is T2, Protein cereblon/Eukaryotic peptide chain release factor GTP-binding subunit ERF3A (Homo sapiens). Put plainly: PROTAC activity at CRBN/GSPT1 in human SEM cells assessed as decrease in GSPT1 level at 2 uM measured after 12 hrs by immunoblot analysis. The assay is classed as cell-based.
The target in assay [9] is T1, Protein cereblon/Histone-lysine N-methyltransferase NSD2 (Homo sapiens). Put plainly: PROTAC activity at CRBN/NSD2 in human RPMI 8402 cells assessed as induction of NSD2 degradation at 2 uM measured after 4 to 8 hrs hrs by immunoblot analysis. The format is cell-based. Particulars: time 4-8 hrs.
Assay [10] shares this target. Put plainly: In vivo PROTAC activity at CRBN/NSD2 in SCID mouse xenografted with human 22Rv1 cells assessed as downregulation of NSD2 level at 60 mg/kg, iv for 5 days by Western blot analysis. The assay is classed as functional, organism-based. Particulars: CWR22R, time 5.0 day. For orientation: A xenograft is tissue or cells of one species grown in another, often human tumour cells in immunodeficient mice.

For assay [11] the target is unchanged. Put plainly: PROTAC activity at CRBN/NSD2 in human RPMI 8402 cells assessed as induction of NSD2 degradation at 2 uM pretreated with thalidomide for 2 hrs followed by compound addition and measured after 6 to 12 hrs by Western blot analysis. The assay is classed as cell-based. Particulars: time 6-12 hrs.
Assay [12] shares this target. Put plainly: In vivo PROTAC activity at CRBN/NSD2 in SCID mouse xenografted with human SEM cells assessed as downregulation of NSD2 level at 60 mg/kg, ip for 5 days by immunohistochemical analysis. The assay is classed as functional, organism-based. The settings on record: time 5.0 day.
The target is the same in assay [13]. Put plainly: PROTAC activity at CRBN/NSD2 in human SEM cells assessed as downregulation of H3K36Me2 level at 2 uM measured after 8 hrs hrs by immunoblot analysis. The format is cell-based.
Assay [14] deals with Protein cereblon/Histone-lysine N-methyltransferase, H3 lysine-36 specific (Homo sapiens) (UniProt Q96L73+Q96SW2). Put plainly: PROTAC activity at CRBN/NSD1 in human SEM cells assessed as decrease in NSD1 level at 2 uM measured upto 8 hrs by immunoblot analysis. The assay is classed as cell-based.
Protein cereblon/Histone-lysine N-methyltransferase, H3 lysine-36 specific (Homo sapiens), sequence (Q96L73 whole entry, looked up): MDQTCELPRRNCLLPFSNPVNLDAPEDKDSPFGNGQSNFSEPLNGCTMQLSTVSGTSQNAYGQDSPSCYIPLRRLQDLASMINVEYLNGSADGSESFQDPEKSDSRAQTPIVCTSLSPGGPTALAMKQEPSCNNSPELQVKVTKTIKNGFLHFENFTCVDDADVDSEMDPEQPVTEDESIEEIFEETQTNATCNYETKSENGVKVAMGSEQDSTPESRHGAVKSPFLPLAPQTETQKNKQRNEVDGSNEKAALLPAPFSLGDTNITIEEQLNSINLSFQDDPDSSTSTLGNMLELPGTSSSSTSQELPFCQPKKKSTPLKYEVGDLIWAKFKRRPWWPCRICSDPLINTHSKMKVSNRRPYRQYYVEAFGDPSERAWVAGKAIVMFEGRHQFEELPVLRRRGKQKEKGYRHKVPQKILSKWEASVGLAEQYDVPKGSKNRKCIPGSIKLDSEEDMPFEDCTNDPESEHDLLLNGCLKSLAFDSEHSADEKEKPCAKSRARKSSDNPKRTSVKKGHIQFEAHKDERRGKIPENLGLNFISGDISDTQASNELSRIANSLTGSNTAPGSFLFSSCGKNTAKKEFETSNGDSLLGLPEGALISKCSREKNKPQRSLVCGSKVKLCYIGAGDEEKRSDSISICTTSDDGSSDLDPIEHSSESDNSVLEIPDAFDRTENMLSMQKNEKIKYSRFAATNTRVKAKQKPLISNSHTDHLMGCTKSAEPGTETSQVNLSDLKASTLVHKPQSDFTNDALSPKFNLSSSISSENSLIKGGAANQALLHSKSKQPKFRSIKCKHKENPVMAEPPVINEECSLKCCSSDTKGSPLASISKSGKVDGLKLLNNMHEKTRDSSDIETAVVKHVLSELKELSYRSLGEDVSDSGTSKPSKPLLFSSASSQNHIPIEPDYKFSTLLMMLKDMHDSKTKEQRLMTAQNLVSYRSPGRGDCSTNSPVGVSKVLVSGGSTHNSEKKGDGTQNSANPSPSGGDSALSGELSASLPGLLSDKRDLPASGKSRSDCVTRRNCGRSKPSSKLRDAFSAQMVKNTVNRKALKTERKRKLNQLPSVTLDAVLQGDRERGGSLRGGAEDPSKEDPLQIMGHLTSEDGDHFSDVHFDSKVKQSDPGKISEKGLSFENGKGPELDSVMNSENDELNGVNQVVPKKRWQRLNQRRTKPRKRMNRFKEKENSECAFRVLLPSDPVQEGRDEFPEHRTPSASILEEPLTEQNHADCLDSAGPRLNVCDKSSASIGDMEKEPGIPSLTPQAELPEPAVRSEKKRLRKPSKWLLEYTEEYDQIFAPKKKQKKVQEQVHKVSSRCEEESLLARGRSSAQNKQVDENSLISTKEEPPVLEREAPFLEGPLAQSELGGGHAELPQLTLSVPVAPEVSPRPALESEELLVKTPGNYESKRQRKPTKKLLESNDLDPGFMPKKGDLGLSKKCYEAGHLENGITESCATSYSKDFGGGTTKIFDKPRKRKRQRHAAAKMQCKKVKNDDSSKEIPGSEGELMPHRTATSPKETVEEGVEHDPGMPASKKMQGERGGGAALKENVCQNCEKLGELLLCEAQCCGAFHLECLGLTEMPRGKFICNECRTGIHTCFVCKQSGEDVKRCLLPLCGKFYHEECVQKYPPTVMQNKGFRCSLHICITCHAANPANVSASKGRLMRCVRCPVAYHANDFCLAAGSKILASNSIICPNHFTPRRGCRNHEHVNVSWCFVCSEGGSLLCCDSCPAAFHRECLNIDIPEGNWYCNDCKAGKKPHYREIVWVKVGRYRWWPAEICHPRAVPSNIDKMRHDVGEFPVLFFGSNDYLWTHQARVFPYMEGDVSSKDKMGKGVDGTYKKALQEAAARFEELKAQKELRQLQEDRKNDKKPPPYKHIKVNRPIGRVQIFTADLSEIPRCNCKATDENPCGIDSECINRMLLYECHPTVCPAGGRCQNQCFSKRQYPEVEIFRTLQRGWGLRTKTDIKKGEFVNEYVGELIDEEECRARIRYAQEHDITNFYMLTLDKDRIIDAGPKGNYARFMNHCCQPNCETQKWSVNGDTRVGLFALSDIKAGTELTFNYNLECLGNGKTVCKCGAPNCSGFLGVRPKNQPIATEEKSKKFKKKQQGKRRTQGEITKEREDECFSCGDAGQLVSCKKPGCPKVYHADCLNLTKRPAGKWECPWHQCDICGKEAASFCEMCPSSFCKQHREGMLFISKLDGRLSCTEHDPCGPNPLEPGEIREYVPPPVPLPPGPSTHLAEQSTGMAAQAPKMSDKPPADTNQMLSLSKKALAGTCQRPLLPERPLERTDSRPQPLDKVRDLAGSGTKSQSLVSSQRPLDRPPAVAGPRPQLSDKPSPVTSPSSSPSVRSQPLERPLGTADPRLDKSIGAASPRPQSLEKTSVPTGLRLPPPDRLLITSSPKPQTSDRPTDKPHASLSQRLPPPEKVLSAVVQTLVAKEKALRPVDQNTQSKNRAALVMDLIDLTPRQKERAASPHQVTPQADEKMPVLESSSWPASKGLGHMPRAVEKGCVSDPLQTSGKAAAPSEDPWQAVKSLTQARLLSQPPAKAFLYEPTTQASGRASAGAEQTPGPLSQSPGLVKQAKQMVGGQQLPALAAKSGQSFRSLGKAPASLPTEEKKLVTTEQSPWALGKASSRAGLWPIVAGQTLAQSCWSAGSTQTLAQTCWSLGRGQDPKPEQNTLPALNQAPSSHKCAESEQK
Protein cereblon/Histone-lysine N-methyltransferase, H3 lysine-36 specific (Homo sapiens), sequence (Q96SW2 whole entry, looked up): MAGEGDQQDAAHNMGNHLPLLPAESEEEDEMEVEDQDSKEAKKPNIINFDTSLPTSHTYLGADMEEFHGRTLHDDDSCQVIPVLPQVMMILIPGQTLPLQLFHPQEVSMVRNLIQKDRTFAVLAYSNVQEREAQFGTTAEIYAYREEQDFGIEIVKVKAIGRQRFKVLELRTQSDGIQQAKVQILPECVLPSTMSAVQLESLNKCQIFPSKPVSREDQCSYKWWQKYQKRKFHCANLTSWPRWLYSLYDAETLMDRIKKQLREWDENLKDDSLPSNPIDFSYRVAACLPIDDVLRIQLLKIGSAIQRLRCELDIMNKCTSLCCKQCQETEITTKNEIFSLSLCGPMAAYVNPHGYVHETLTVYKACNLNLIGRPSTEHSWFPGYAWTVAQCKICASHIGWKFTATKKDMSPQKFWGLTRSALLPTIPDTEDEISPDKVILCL

Calls of active or inactive are those of the source. No cut-off for these calls is given here.

The values that follow come from ChEMBL document CHEMBL5506025, “Discovery of LLC0424 as a Potent and Selective in Vivo NSD2 PROTAC Degrader” (J Med Chem, 2024).

T1 sequence (O96028 whole entry, looked up): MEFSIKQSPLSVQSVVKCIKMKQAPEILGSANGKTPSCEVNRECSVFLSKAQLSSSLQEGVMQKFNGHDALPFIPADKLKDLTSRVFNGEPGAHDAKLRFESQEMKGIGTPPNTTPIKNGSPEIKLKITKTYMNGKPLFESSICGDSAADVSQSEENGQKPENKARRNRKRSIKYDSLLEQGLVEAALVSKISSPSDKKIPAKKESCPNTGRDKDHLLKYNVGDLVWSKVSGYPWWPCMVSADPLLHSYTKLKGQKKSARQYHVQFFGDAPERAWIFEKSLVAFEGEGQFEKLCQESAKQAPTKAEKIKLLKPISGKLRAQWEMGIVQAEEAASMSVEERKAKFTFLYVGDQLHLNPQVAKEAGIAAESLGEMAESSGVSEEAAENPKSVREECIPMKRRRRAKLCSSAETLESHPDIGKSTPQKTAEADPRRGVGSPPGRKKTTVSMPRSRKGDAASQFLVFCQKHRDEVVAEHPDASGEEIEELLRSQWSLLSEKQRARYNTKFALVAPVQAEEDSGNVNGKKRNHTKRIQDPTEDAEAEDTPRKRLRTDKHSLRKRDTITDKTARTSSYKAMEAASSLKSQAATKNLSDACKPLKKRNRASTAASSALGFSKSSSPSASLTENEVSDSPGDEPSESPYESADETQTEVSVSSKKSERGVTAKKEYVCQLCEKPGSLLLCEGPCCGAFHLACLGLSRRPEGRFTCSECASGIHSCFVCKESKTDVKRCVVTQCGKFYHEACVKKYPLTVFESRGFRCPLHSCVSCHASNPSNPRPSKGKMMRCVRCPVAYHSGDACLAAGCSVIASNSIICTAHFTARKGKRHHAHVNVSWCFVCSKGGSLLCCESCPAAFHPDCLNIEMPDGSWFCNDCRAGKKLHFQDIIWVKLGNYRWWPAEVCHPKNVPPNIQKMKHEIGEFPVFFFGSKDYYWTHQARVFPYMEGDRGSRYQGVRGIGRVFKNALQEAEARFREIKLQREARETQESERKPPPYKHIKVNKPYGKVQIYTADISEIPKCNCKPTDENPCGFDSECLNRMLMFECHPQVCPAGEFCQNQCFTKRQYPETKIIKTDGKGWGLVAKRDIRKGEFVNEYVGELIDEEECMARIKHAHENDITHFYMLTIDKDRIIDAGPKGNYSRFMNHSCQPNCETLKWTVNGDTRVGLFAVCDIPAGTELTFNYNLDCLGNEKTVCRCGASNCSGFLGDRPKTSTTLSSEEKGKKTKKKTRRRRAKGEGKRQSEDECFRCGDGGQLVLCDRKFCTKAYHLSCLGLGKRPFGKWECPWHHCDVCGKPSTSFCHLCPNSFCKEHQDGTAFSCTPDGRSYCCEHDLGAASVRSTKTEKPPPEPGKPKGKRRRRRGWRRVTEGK
T1 sequence (Q96SW2 whole entry, looked up): as the sequence (Q96SW2 whole entry, looked up) above
T2 sequence (P15170 whole entry, looked up): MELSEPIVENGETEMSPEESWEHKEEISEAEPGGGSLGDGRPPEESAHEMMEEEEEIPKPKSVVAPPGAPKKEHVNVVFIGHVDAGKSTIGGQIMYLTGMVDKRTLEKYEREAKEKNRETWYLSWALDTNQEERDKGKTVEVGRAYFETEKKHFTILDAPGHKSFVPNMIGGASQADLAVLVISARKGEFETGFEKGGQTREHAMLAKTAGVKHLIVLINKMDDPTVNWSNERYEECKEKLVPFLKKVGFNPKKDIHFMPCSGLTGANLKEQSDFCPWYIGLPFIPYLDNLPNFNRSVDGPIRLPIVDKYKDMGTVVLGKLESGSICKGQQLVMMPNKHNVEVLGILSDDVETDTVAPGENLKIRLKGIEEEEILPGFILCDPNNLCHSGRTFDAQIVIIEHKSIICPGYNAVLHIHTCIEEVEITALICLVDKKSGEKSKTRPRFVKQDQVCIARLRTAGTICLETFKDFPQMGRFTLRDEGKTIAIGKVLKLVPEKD
T2 sequence (Q96SW2 whole entry, looked up): as the sequence (Q96SW2 whole entry, looked up) above

On to `O=C1CCC(N2C(=O)c3ccc(N4CCC(NC(=O)c5ccc(NC(=O)c6ccc(CN(C(=O)c7ccc8c(c7)OCC(=O)N8)C7CC7)cc6)cc5)CC4)cc3C2=O)C(=O)N1` (stereo not given), for which the outcome in assay [1], in assay [2], in [3], in [7], in assay [8] and in assay [9] was Active. Also, the outcome in assay [10], in [12] and in assay [13] was Active. The inhibition result in the assay on RPMI 8402 was “Active”. Moreover, the result in assay [4], in assay [6], in [11] and in assay [14] was inactive. Moreover, the Activity result in [5] was “Dose-Dependent Effect”.
